From article PMC12385050, “Novel Neuroactive Steroid Analogs and Voltage-Dependent Blockers of CaV3.2 Currents, B372 and YX23, Are Effective Anti-Nociceptives with Diminished Sedative Properties in Intact Female Mice” (Biomolecules, 2025)

How the values were obtained:
CaV3.2 [1] = target: T1, CaV3.2 (Homo sapiens, UniProt O95180); experiment: whole-cell patch clamp, percent inhibition of peak current at […]; format: cell-based
T1 construct: gene CACNA1H; human CaV3.2 channels stably expressed in HEK-293 cells
T1 sequence (O95180 whole entry): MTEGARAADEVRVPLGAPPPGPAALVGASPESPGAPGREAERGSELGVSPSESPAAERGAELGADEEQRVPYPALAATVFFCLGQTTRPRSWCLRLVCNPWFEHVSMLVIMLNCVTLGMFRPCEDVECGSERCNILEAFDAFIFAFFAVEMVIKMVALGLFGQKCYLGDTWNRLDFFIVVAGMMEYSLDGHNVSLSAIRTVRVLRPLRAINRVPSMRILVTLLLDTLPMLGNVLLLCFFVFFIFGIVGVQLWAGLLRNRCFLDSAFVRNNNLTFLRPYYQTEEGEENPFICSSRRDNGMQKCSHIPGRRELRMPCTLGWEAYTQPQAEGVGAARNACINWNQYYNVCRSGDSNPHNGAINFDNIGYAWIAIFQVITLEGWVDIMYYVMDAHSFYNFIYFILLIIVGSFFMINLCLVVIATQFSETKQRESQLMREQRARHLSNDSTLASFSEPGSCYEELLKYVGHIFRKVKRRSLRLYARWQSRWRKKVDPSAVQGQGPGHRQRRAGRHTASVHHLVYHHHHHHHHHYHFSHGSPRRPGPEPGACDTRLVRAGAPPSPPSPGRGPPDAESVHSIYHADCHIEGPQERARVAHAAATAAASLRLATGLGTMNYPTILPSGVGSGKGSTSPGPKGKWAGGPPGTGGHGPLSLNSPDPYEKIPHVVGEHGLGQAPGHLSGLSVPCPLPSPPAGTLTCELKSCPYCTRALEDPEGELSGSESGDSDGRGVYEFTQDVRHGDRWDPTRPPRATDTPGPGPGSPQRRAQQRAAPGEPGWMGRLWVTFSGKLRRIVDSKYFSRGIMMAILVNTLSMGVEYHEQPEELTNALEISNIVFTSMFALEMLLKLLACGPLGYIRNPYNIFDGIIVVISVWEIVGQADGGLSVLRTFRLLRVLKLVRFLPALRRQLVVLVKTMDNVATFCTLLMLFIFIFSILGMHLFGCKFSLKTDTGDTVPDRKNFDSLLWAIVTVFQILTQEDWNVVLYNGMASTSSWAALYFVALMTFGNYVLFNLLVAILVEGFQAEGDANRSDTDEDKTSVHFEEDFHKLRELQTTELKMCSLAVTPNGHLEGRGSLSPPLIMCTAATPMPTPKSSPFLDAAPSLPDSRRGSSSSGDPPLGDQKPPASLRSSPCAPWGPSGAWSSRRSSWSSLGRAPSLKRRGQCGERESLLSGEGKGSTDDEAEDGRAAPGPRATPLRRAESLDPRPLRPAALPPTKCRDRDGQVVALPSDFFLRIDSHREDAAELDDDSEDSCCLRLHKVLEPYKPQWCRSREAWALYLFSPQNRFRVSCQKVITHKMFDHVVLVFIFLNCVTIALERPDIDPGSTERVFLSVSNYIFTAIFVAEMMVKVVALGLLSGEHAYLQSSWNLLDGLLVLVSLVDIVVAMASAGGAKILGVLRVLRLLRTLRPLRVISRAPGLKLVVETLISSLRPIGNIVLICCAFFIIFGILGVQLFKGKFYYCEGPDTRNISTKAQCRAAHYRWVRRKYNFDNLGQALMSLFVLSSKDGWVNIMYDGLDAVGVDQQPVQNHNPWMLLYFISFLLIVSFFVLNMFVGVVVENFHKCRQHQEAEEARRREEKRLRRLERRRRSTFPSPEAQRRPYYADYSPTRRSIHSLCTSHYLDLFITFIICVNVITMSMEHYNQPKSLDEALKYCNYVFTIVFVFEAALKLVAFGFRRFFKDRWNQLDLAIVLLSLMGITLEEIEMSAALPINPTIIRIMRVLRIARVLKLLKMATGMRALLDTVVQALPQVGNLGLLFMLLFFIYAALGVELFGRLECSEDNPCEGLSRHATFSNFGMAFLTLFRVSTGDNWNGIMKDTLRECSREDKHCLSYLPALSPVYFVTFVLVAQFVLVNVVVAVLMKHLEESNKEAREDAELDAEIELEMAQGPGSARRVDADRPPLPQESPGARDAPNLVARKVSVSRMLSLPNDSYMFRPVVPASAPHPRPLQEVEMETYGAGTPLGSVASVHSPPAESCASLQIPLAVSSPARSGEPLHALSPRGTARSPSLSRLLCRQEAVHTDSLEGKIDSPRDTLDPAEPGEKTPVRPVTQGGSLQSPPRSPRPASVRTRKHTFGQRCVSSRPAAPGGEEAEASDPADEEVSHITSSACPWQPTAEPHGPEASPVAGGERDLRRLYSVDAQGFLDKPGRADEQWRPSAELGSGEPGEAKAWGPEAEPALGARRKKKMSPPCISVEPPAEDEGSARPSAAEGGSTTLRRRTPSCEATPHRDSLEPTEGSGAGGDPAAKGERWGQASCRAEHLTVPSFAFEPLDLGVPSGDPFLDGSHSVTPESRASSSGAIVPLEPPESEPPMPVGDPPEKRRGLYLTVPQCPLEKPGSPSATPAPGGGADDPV

CaV3.2 [2] = target: T1, CaV3.2; experiment: whole-cell patch clamp, concentration-response of peak T-current; format: cell-based

Compound	inhibition at 10 µM (CaV3.2 [1]) [%]	IC50 (CaV3.2 [2]) [µM]
C[C@]12CC[C@H](O)C[C@H]1CC[C@@H]1[C@@H]2CC[C@]2(C)[C@@H](C#N)CC[C@@H]12 [3β-OH, (3β,5β,17β)-3-hydroxyandrostane-17-carbonitrile]	48.2 ± 4.2	–
C[C@]12CC[C@H]3[C@@H](CC[C@H]4C[C@@H](C#N)CC[C@@H]43)[C@@H]1CC[C@@H]2O [ECN, (3β,5α,17β)-17-hydroxyestrane-3-carbonitrile]	47.4 ± 5.2	–
C[C@]12CC[C@H](O)C[C@@H]1CC[C@@H]1[C@@H]2CC[C@]2(C)[C@@H](C#N)CC[C@@H]12 [compound 6, (3β,5α,17β)-3-Hydroxyandrostan-17-carbonitrile]	–	3.8
CO[C@H]1CC[C@H]2[C@@H](CC[C@@H]3[C@@H]2CC[C@]2(C)[C@@H](O)CC[C@@H]32)C1 [compound 6, (3β,5α,17β)-3-Methoxyestran-17-ol]	–	2.4
